According to patent publication US20220323594A1, “LIPIDATED CATIONIC PEPTIDE-PEG COMPOSITIONS FOR NUCLEIC ACID DELIVERY” (NUTCRACKER THERAPEUTICS, INC., priority 2019, published 2022):

Tests used:
HeLa cells [1] = test: In vitro Fluc expression with variable peptoid:mRNA mass ratio, 2% DMG-PEG2000; format: cell-based; conditions: 24 h; for Observed Luciferase Expression (RLU) for Given Formulation Mass Ratio 2:1: 2% (w/w) DMG-PEG2000, peptoid:mRNA 2:1; for Observed Luciferase Expression (RLU) for Given Formulation Mass Ratio 3.5:1: 2% (w/w) DMG-PEG2000, peptoid:mRNA 3.5:1; for Observed Luciferase Expression (RLU) for Given Formulation Mass Ratio 5:1: 2% (w/w) DMG-PEG2000, peptoid:mRNA 5:1; for Observed Luciferase Expression (RLU) for Given Formulation Mass Ratio 7.5:1: 2% (w/w) DMG-PEG2000, peptoid:mRNA 7.5:1
Method in brief: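 HeLa cells exposed 24 hours to amino lipidated peptoid/Fluc mRNA formulations containing 2% w/w DMG-PEG2000 (relative to peptoid), across peptoid:mRNA mass ratios of 2:1 to 7.5:1. Read-out: average luciferase bioluminescence (RLU).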

[2] = Dynamic light scattering (DLS) of mRNA/peptoid formulations: particle size and polydispersity; format: physicochemical; conditions: Fluc mRNA/peptoid formulation; for Size PDI: size polydispersity index by DLS, 5:1 mass ratio; for Size (nm): volume average particle size/diameter by DLS, 5:1 mass ratio peptoid:cargo
Method in brief: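 Volume-average particle diameter (nm) and PDI were measured by dynamic light scattering. Formulations combined peptoid diluted in ethanol with Fluc mRNA in pH 5.5 PBS at 1:3 by volume, mixed by pipetting at 5:1 peptoid:mRNA by mass.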

Balb/c mice [3] = test: In vivo organ-specific bioluminescence (biodistribution of Fluc) following IV administration; conditions: for Total Flux (p/s) Liver: dissected liver; for Total Flux (p/s) Lung: dissected lung; for Total Flux (p/s) Spleen: dissected spleen
Protocol: Amino lipidated peptoid delivery vehicles are effective for in vivo administration of Fluc mRNA to Balb/c mice (n=3) through multiple routes of administration. Briefly, representative amino lipidated peptoid/Fluc formulations (prepared at a 5:1 mass ratio of amino lipidated peptoid:mRNA unless noted, with 2% w/w DMG-PEG2000) were administered at a dose of 0.5 mg/kg via a tail-vein injection, and the resulting bioluminescence was quantified after 8 hours. […] Organ-specific bioluminescence was quantified by sacrificing the treated animal, dissecting out the organs of interest, and separately quantifying the resulting bioluminescence. […] FIG. 7C depicts a bar chart quantifying the organ-specific biodistribution of the formulations as a function of total photon flux.

[4] = mRNA encapsulation by fluorescence of Qubit RNA HS dye before and after lysis with Triton X-100; format: physicochemical; conditions: percentage of mRNA encapsulation; Fluc mRNA/peptoid formulation, 5:1 mass ratio
Method in brief: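 Encapsulation was measured by comparing Qubit RNA HS fluorescence of intact particles with that after Triton X-100 lysis. Particles were amino-lipidated cationic peptoids complexed with firefly luciferase mRNA at 5:1 peptoid:cargo by mass, mixed by pipetting.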

HeLa cells [5] = test: In vitro expression of firefly luciferase (Fluc) after treatment with Fluc mRNA/amino lipidated peptoid formulations, no PEG or 2% DMG-PEG2000; format: cell-based
Method in brief: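 HeLa cells received 100 ng/well Fluc mRNA complexed with amino lipidated peptoid at 5:1 peptoid:mRNA (w/w), either peptoid alone or with 2% w/w DMG-PEG2000. Expression quantified as RLU by luminescence at 6 and 24 h.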

Balb/c mice [6] = test: In vivo whole-body expression of Fluc following IV administration; conditions: Balb/c mice (n=3), IV tail-vein, 0.5 mg/kg, 5:1 peptoid:mRNA, 2% w/w DMG-PEG2000, 8 hours
Protocol: Amino lipidated peptoid delivery vehicles are effective for in vivo administration of Fluc mRNA to Balb/c mice (n=3) through multiple routes of administration. Briefly, representative amino lipidated peptoid/Fluc formulations (prepared at a 5:1 mass ratio of amino lipidated peptoid:mRNA unless noted, with 2% w/w DMG-PEG2000) were administered at a dose of 0.5 mg/kg via a tail-vein injection, and the resulting bioluminescence was quantified after 8 hours.

[7] = MTT viability assay after treatment with Fluc mRNA/amino lipidated peptoid formulations; format: cell-based; conditions: human, HeLa cells
Method in brief: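 Viability relative to untreated cells came from the formazan read-out after 2 h with 1.5 mg/mL MTT and acidic isopropanol/Triton lysis. The MTT step followed an 8 h exposure to 100 ng/well Fluc mRNA in 5:1 peptoid:mRNA, 2% DMG-PEG2000 formulations and a further 48 h of culture.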

Balb/c mice [8] = test: In vivo expression of Fluc following subcutaneous or intramuscular administration; conditions: for Total Flux (photons/sec) I.M. (0.05 mpk): mRNA 0.05 mpk; for Total Flux (photons/sec) S.C. (0.1 mpk): subcutaneous, mRNA 0.1 mpk
Protocol: In addition to IV administration, amino lipidated peptoids are also effective for local administration of mRNA through subcutaneous (S.C.) or intramuscular (I.M.) routes of administration. […] For these examples, mRNA was administered at a dose of 0.1 milligrams/kilogram (mpk) for subcutaneous or 0.05 mpk for intramuscular. In these cases, the overall expression was higher following intramuscular injections. […] Additional experiments were carried out to assess any variability in biodistribution as a function of the loading mass ratio of amino lipidated peptoid to the Fluc mRNA. FIG. 8A depicts a plot of total photon flux for formulations of amino lipidated peptoid compound 28 with 2% DMG-PEG 2000 and Fluc mRNA at different peptoid:mRNA ratios (1:1, 2:1, 5:1, 7.5:1 and 10:1).

[9] = no PEG, peptoid:Fluc mRNA 5:1 w/w, 100 ng/well, 6 h of treatment
[10] = no PEG, peptoid:Fluc mRNA 5:1 w/w, 100 ng/well, 24 h of treatment
[11] = with 2% (w/w) DMG-PEG2000, peptoid:mRNA 5:1, 6 h after treatment
[12] = with 2% (w/w) DMG-PEG2000, peptoid:mRNA 5:1, 24 h after treatment

SMILES | Size PDI [2] | Size (nm) [2] | % Encapsulation [4] | Observed Luciferase Expression (RLU) for Given Formulation Mass Ratio 2:1 (HeLa cells [1]) | Observed Luciferase Expression (RLU) for Given Formulation Mass Ratio 3.5:1 (HeLa cells [1]) | Observed Luciferase Expression (RLU) for Given Formulation Mass Ratio 5:1 (HeLa cells [1]) | Observed Luciferase Expression (RLU) for Given Formulation Mass Ratio 7.5:1 (HeLa cells [1]) | Total Flux (p/s) Liver (Balb/c mice [3]) | Total Flux (p/s) Lung (Balb/c mice [3]) | Total Flux (p/s) Spleen (Balb/c mice [3]) | Luciferase Expression (RLU) 6 h (HeLa cells [5]; [9]) | Luciferase Expression (RLU) 24 h (HeLa cells [5]; [10]) | Luciferase Expression (RLU) 6 h (HeLa cells [5]; [11]) | Luciferase Expression (RLU) 24 h (HeLa cells [5]; [12]) | Total Flux (photons/sec), whole body (Balb/c mice [6]) | viability at 8 h, 500 ng/well ([7]; Relative Viability (%) 2% PEG) | Total Flux (photons/sec) I.M. (0.05 mpk) (Balb/c mice [8]; intramuscular) | Total Flux (photons/sec) S.C. (0.1 mpk) (Balb/c mice [8]) | viability at 8 h, 500 ng/well ([7]; Relative Viability (%) No PEG) | further results
CCCCCCCCCCN(CC(N)=O)C(=O)CN(CCCCCCCCCC)C(=O)CN(CCN)C(=O)CN(CCN)C(=O)CNCCN [Compound 14] | 0.233 | 554 nm | 77.3% | 8.31E+01 RLU | 1.42E+02 RLU | 4.29E+01 RLU | 2.82E+01 RLU | 4.47E+04 p/s | 4.17E+04 p/s | 4.89E+04 p/s | 3.20E+01 RLU | 1.43E+01 RLU | 4.67E+00 RLU | 9.00E+00 RLU | 4.58E+05 photons/sec | 91% | – | – | – | –
CCCCCCCCCCN(CC(N)=O)C(=O)CN(CCCCCCCCCC)C(=O)CN(CCc1ccccc1)C(=O)CN(CCc1ccccc1)C(=O)CN(CCN)C(=O)CN(CCc1ccccc1)C(=O)CN(CCc1ccccc1)C(=O)CN(CCN)C(=O)CN(CCc1ccccc1)C(=O)CN(CCc1ccccc1)C(=O)CNCCN [Compound 2] | 0.128 | 150 nm | 100.3% | 2.45E+04 RLU | 1.80E+04 RLU | 2.81E+04 RLU | 1.49E+03 RLU | 1.40E+06 p/s | 2.46E+07 p/s | 3.39E+06 p/s | 2.35E+02 RLU | 1.35E+02 RLU | 5.40E+01 RLU | 1.17E+02 RLU | 1.37E+07 photons/sec | 92.6% | 1.27E+05 photons/sec | 8.31E+04 photons/sec | 90.6% | –
CCCCCCCCCCN(CC(N)=O)C(=O)CN(CCCCCCCCCC)C(=O)CN(CCc1ccccc1)C(=O)CN(CCc1ccccc1)C(=O)CN(CCN)C(=O)CN(CCc1ccccc1)C(=O)CN(CCc1ccccc1)C(=O)CNCCN [Compound 10] | 0.009 | 157 nm | 92.6% | 5.57E+03 RLU | 1.23E+04 RLU | 3.51E+04 RLU | 3.57E+02 RLU | 5.85E+05 p/s | 5.14E+06 p/s | 2.17E+06 p/s | 1.88E+03 RLU | 7.01E+02 RLU | 2.21E+02 RLU | 2.43E+02 RLU | 1.04E+07 photons/sec | 108% | 9.01E+05 photons/sec | 1.40E+05 photons/sec | 101% | –

Now from value to compound, other results behind:

Size PDI [2] | Size (nm) [2] | % Encapsulation [4] | SMILES | Observed Luciferase Expression (RLU) for Given Formulation Mass Ratio 2:1 (HeLa cells [1]) | Observed Luciferase Expression (RLU) for Given Formulation Mass Ratio 3.5:1 (HeLa cells [1]) | Observed Luciferase Expression (RLU) for Given Formulation Mass Ratio 5:1 (HeLa cells [1]) | Observed Luciferase Expression (RLU) for Given Formulation Mass Ratio 7.5:1 (HeLa cells [1]) | Total Flux (p/s) Liver (Balb/c mice [3]) | Total Flux (p/s) Lung (Balb/c mice [3]) | Total Flux (p/s) Spleen (Balb/c mice [3]) | Luciferase Expression (RLU) 6 h (HeLa cells [5]; [9]) | Luciferase Expression (RLU) 24 h (HeLa cells [5]; [10]) | Luciferase Expression (RLU) 6 h (HeLa cells [5]; [11]) | Luciferase Expression (RLU) 24 h (HeLa cells [5]; [12]) | Total Flux (photons/sec), whole body (Balb/c mice [6]) | viability at 8 h, 500 ng/well ([7]; Relative Viability (%) 2% PEG) | Total Flux (photons/sec) I.M. (0.05 mpk) (Balb/c mice [8]; intramuscular) | Total Flux (photons/sec) S.C. (0.1 mpk) (Balb/c mice [8]) | viability at 8 h, 500 ng/well ([7]; Relative Viability (%) No PEG) | further results
0.085 | 308 nm | 52.0% | CCCCCCCCCCN(CC(N)=O)C(=O)CN(CCCCCCCCCC)C(=O)CN(CCCCCCCCCC)C(=O)CN(CCCCCCCCCC)C(=O)CN(CCc1ccccc1)C(=O)CN(CCc1ccccc1)C(=O)CN(CCCN)C(=O)CN(CCc1ccccc1)C(=O)CN(CCc1ccccc1)C(=O)CN(CCCN)C(=O)CN(CCc1ccccc1)C(=O)CN(CCc1ccccc1)C(=O)CNCCCN [Compound 28] | 1.26E+02 RLU | 1.93E+03 RLU | 5.75E+03 RLU | 2.07E+04 RLU | 1.10E+07 p/s | 7.08E+07 p/s | 2.16E+08 p/s | 9.59E+02 RLU | 4.97E+03 RLU | 8.33E+02 RLU | 6.94E+02 RLU | 2.36E+08 photons/sec | 92.7% | 7.23E+06 photons/sec | 1.65E+06 photons/sec | 85.4% | expression after IM administration compared with Compound 8 (Balb/c mice [8]; intramuscular): significantly outperformed that example; organ localization of Fluc expression (Balb/c mice [3]; organ-specific bioluminescence): preferential localization in other organs such as the spleen
0.37 | 326.6 nm | 72.2% | CCCCCCCCCCN(CC(N)=O)C(=O)CN(CCCCCCCCCC)C(=O)CN(CCCCCCCCCC)C(=O)CN(CCCCCCCCCC)C(=O)CN(CCCCCCCCCC)C(=O)CN(CCc1ccccc1)C(=O)CN(CCc1ccccc1)C(=O)CN(CCN)C(=O)CN(CCc1ccccc1)C(=O)CN(CCc1ccccc1)C(=O)CNCCN [Compound 20] | 1.31E+03 RLU | 2.47E+04 RLU | 1.31E+04 RLU | 2.27E+04 RLU | – | – | – | 9.91E+03 RLU | 1.55E+04 RLU | 1.75E+04 RLU | 1.36E+04 RLU | – | 93% | – | – | 87.1% | –
